Test results reported in patent US20130123355A1, “Fatty acids and metal ions compositions and uses thereof” (priority 2011, published 2013).

Experiments:
rats [1] = assay: tail flick test; format: in vivo; settings: diet
Procedure: On Zn-EPA or zinc gluconate supplemented diet, rats consume about 1 mg/kg body weight/day of elemental zinc, on a feeding schedule so as to maintain 85% of its free-feeding weight.

[2] = tested on: Patients presenting symptoms of migraine; assay: migraine pain relief on visual analog scale (VAS); format: in vivo, human; settings: reviewed after 4 hours
Procedure: Patients presenting symptoms of migraine are prescribed Zn-DHA or zinc gluconate capsules formulated to provide a daily dosage of 30 mg of elemental zinc. The symptoms of migraine are reviewed after 4 hours. […] For each group of patients, Excedrin is prescribed as rescue medicine.
Patients presenting symptoms of migraine are prescribed Zn-DHA-LysoPC or zinc gluconate formulated to provide a daily dosage of 30 mg of elemental zinc. The symptoms of migraine are reviewed after 4 hours. […] For each group of patients, Excedrin is prescribed as rescue medicine.
Patients presenting symptoms of migraine are prescribed Zn-EPA capsules formulated to provide a daily dosage of 30 mg of elemental Zn. The symptoms of migraine are reviewed after 4 hours. […] For each group of patients, Excedrin is prescribed as rescue medicine.

rats [3] = assay: T-maze test (forced alternation or left-right discrimination task); format: in vivo; settings: diet
Procedure: Mg-DHA composition is provided as supplement in standard rat feed. On an average, rats consume about 50 mg/Kg/day of elemental Mg, on a feeding schedule so as to maintain 85% of its free-feeding weight. In the control group, rats are fed either DHA or magnesium citrate (Mg Citrate) supplemented diet on schedule similar to test group. After habituation to the apparatus and pre-training, each rat undergoes 4 trials of standard T-maze test (Shoji et al, J. Vis. Exp. (60), e3300, DOI: 10.3791/3300 (2012)) on day 1 or day 21 of Mg-DHA, Mg Citrate, or DHA feeding. Rats are subject to either forced alternation task or left-right discrimination task. Behaviors in the T-maze apparatus is recorded and statistically analyzed by two way repeated measures analysis of variance. […] In another set of experiments, rats fed with DHA, Mg Citrate, or Mg-DHA for 21 days are subject to novel-object-location (NOL) tests.
Mg-DHA composition is provided as supplement in standard rat feed. On an average, rats consume about 50 mg/Kg/day of elemental Mg, on a feeding schedule so as to maintain 85% of its free-feeding weight. In the control group, rats are fed DHA-LysoPC or Mg Citrate supplemented diet on schedule similar to test group. After habituation to the apparatus and pre-training, each rat undergoes 4 trials of standard T-maze test (Shoji et al, J. Vis. Exp. (60), e3300, DOI: 10.3791/3300 (2012)) on day 1 or day 21 of Mg-DHA-LysoPC, Mg Citrate or DHA-LysoPC feeding. Rats are subjected to either forced alternation task or left-right discrimination task. Behaviors in the T-maze apparatus is recorded and statistically analyzed by two way repeated measures analysis of variance. […] In another set of experiments, rats fed with Mg Citrate, DHA-LysoPC, or Mg-DHA-LysoPC for 21 days are subjected to novel-object-location (NOL) tests.
Mg-EPA composition is provided as supplement in standard rat feed. On an average, rats consume about 50 mg/Kg/day of elemental Mg, on a feeding schedule so as to maintain 85% of its free-feeding weight. In the control group, rats are fed EPA or Mg Citrate supplemented diet on scheduled similar to test group. After habituation to the apparatus and pre-training, each rat undergoes 4 trials of standard T-maze test (Shoji et al, J. Vis. Exp. (60), e3300, DOI: 10.3791/3300 (2012)) on day 1 or day 21 of Mg-EPA, Mg Citrate, or EPA feeding. Rats are subjected to either forced alternation task or left-right discrimination task. Behaviors in the T-maze apparatus is recorded and statistically analyzed by two way repeated measures analysis of variance. […]
Zn-DHA composition is provided as supplement in standard rat feed. […] Behaviors in the T-maze apparatus is recorded and statistically analyzed by two way repeated measures analysis of variance. […]

[4] = about 50 mg/Kg/day elemental Mg, days 0, 7, 14, 21, compared with Mg Citrate or the fatty acid alone
[5] = 150 mg elemental magnesium daily, compared with the fatty acid alone or Mg Citrate
[6] = about 50 mg/Kg/day elemental Mg, day 1 or day 21, compared with the fatty acid alone or Mg Citrate
[7] = about 1 mg/kg body weight/day elemental zinc, days 0, 7, 14, 21, compared with zinc gluconate or the fatty acid alone
[8] = 30 mg elemental zinc daily, compared with the fatty acid alone or zinc gluconate
[9] = about 1 mg/kg body weight/day elemental Zn, day 1 or day 21, compared with the fatty acid alone or zinc gluconate

Compound	latency of tail flick reflex (rats [1]; [4])	pain relief on a visual analog scale (VAS) [2, 5]	working and reference memory (rats [3]; [6])	latency of tail flick reflex (rats [1]; [7])	pain relief on a visual analog scale (VAS) [2, 8]	working and reference memory (rats [3]; [9])
CC/C=C\C/C=C\C/C=C\C/C=C\C/C=C\C/C=C\CCC(=O)[O-].CC/C=C\C/C=C\C/C=C\C/C=C\C/C=C\C/C=C\CCC(=O)[O-].[Mg+2] [Mg-DHA]	Statistically significant increased latency	significant pain relief	statistically significant increase	–	–	–
CC/C=C\C/C=C\C/C=C\C/C=C\C/C=C\CCCC(=O)[O-].CC/C=C\C/C=C\C/C=C\C/C=C\C/C=C\CCCC(=O)[O-].[Mg+2] [Mg-EPA]	Statistically significant increased latency	significant pain relief	statistically significant increase	–	–	–
CC/C=C\C/C=C\C/C=C\C/C=C\C/C=C\C/C=C\CCC(=O)[O-].CC/C=C\C/C=C\C/C=C\C/C=C\C/C=C\C/C=C\CCC(=O)[O-].[Zn+2] [Zn-DHA]	–	–	–	Statistically significant increased latency	significant pain relief	statistically significant increase
CC/C=C\C/C=C\C/C=C\C/C=C\C/C=C\CCCC(=O)[O-].CC/C=C\C/C=C\C/C=C\C/C=C\C/C=C\CCCC(=O)[O-].[Zn+2] [Zn-EPA]	–	–	–	Statistically significant increased latency	significant pain relief	statistically significant increase
